These results are taken from ChEMBL document CHEMBL5385845, “Novel coumarin aminophosphonates as potential multitargeting antibacterial agents against Staphylococcus aureus” (Eur J Med Chem, 2023).

SMILES strings stand for the structures. In brackets after ≈: the same amount, converted by molar mass. Activity calls are given as the source filed them. The rule behind the calls is not given here.

The test system of series [1] is Staphylococcus aureus. Kind of series: Antibacterial activity against methicillin resistant Staphylococcus aureus N315 assessed as inhibition of bacterial growth. Format: functional.
The test system of a further series is Enterococcus faecalis. In words: Antibacterial activity against Enterococcus faecalis assessed as inhibition of bacterial growth. It counts as functional.
Series [2] relates to Staphylococcus aureus. In words: Antibacterial activity against Staphylococcus aureus assessed as inhibition of bacterial growth. Format: functional.
Series [3] has as its system Staphylococcus aureus. In words: Antibacterial activity against Staphylococcus aureus ATCC 25923 assessed as inhibition of bacterial growth. It counts as functional.
The test system of series [4] is Staphylococcus aureus. In words: Antibacterial activity against Staphylococcus aureus ATCC 29213 assessed as inhibition of bacterial growth. It counts as functional.
For the next series, the system named is Klebsiella pneumoniae. Kind of series: Antibacterial activity against Klebsiella pneumoniae assessed as inhibition of bacterial growth. Format: functional.
Series [5] has as its system Escherichia coli. In words: Antibacterial activity against Escherichia coli assessed as inhibition of bacterial growth. It counts as functional.
The test system of series [6] is Pseudomonas aeruginosa. Kind of series: Antibacterial activity against Pseudomonas aeruginosa assessed as inhibition of bacterial growth. It counts as functional.
In a further series the test system is Acinetobacter baumannii. Kind of series: Antibacterial activity against Acinetobacter baumannii assessed as inhibition of bacterial growth. Format: functional.
Series [7] relates to Pseudomonas aeruginosa. Kind of series: Antibacterial activity against Pseudomonas aeruginosa ATCC 27853 assessed as inhibition of bacterial growth. It counts as functional.
Series [8] relates to Escherichia coli. In words: Antibacterial activity against Escherichia coli ATCC 25922 assessed as inhibition of bacterial growth. It counts as functional.
For series [9], the system named is Staphylococcus aureus. Kind of series: Synergistic antibacterial activity against Staphylococcus aureus assessed as inhibition of bacterial growth in presence of compound 6f. Format: functional.
Series [10] relates to Escherichia coli. In words: Synergistic antibacterial activity against Escherichia coli ATCC 25922 assessed as inhibition of bacterial growth in presence of compound 6f. It counts as functional.
Series [11] relates to Staphylococcus aureus. In words: Induction of drug resistance in Staphylococcus aureus assessed as fold increase in MIC measured for 23 passages. It counts as functional.
Series [12] has as its system Staphylococcus aureus. In words: Synergistic antibacterial activity against Staphylococcus aureus assessed as inhibition of bacterial growth in presence of norfloxacin. It counts as functional.
The test system of series [13] is Escherichia coli. Kind of series: Synergistic antibacterial activity against Escherichia coli ATCC 25922 assessed as inhibition of bacterial growth in presence of norfloxacin. Format: functional.
In series [14] the test system is Staphylococcus aureus. Kind of series: Synergistic antibacterial activity against Staphylococcus aureus assessed as fractional inhibitory concentration index in presence of norfloxacin. It counts as functional.
Series [15] can be described thus: Hemolytic activity in RBC (unknown origin) assessed as hemolysis at 256 ug/ml incubated for 6 hrs relative to control. It counts as toxicity, cell-based, Erythrocyte. The note with it: red blood cells (erythrocytes), at 256 µg/mL, read-out: Activity.
In series [16] the test system is Staphylococcus aureus. In words: Antibacterial activity against Staphylococcus aureus assessed as reduction in bacterial biofilm formation. Format: functional, organism-based.
Series [17] deals with Staphylococcus aureus. In words: Antibacterial activity against Staphylococcus aureus assessed as reduction in bacterial biofilm formation at 16 x MIC relative to control. It counts as functional. More on the design: scale not given: the % may be the effect or the level left.
In series [18] the test system is Staphylococcus aureus. Kind of series: Induction of drug resistance in Staphylococcus aureus assessed as increase in MIC measured for 16 passages. It counts as functional.
Series [19] has as its system Cell membrane. Kind of series: Induction of cell membrane depolarization in Staphylococcus aureus assessed as increase in fluorescence intensity by DiSC3(5) dye-based fluorescence assay.
For series [20], the system named is Cell membrane. In words: Induction of cytoplasmic membrane depolarization in Staphylococcus aureus assessed as increase in fluorescence intensity measured at 10 mins by DiSC3(5) dye-based fluorescence assay. Format: subcellular.
Series [21] concerns Cell membrane. In words: Induction of cell membrane permeabilization in Staphylococcus aureus by propidium iodide dye-based fluorescence assay.
Series [22] relates to Cell membrane. Kind of series: Induction of cell membrane permeabilization in Staphylococcus aureus by calcein-AM dye-based fluorescence assay. Format: subcellular.
Series [23] relates to Cell membrane. Kind of series: Disruption of cell membrane integrity in Staphylococcus aureus assessed as cell membrane damage by scanning electron microscopic analysis. It counts as subcellular.
For series [24], the system named is Cell membrane. Kind of series: Disruption of cell membrane integrity in Staphylococcus aureus assessed as increase in protein leakage.
In series [25] the test system is Staphylococcus aureus. In words: Antibacterial activity against Staphylococcus aureus assessed as reduction in cellular metabolic activity by resazurin staining based assay. Format: functional, organism-based. (Alamar Blue is a resazurin reagent that responds to reducing activity.)
Series [26] relates to Staphylococcus aureus. In words: Antibacterial activity against Staphylococcus aureus assessed as fold increase in intracellular ROS production at 8 times MIC by DCFH-DA dye based fluorometric assay relative to control. Format: functional.
Series [27] has as its system Staphylococcus aureus. In words: Antibacterial activity against Staphylococcus aureus assessed as increase in RNS production by griess reagent-based analysis. Format: functional, organism-based. (In general: Griess reagent forms a coloured azo dye with nitrite.)
The subject of series [28] is Staphylococcus aureus. In words: Antibacterial activity against Staphylococcus aureus assessed as fold increase in RNS production at 8 times MIC by griess reagent-based analysis. It counts as functional.
In series [29] the test system is Staphylococcus aureus. In words: Induction of oxidative stress in Staphylococcus aureus assessed as decrease in GSH activity at 8 times MIC relative to control. It counts as functional. Further details: scale not given: the % may be the effect or the level left.
Series [30] deals with Staphylococcus aureus. In words: Antibacterial activity against Staphylococcus aureus assessed as fold increase in malondialdehyde level at 1 to 5 times MIC. It counts as functional.
The test system of series [31] is Staphylococcus aureus. Kind of series: Antibacterial activity against Staphylococcus aureus assessed as effect on lipid peroxidation production at 1 to 5 times MIC incubated for 5 to 20 mins. Format: functional, organism-based. The note with it: time 5-20 min.
Series [32] relates to Calf thymus DNA. Kind of series: Binding affinity to calf thymus DNA assessed as intercalation by measuring hypochromic shift by UV-Vis spectroscopic analysis. Format: nucleic-acid assay. The note with it: Bos taurus.
The subject of series [33] is Calf thymus DNA. Kind of series: Binding affinity to calf thymus DNA by acridine orange staining based competitive binding assay. Format: nucleic-acid assay. As to conditions: Bos taurus.
Series [34] concerns Calf thymus DNA. Kind of series: Binding affinity to calf thymus DNA by DAPI staining based competitive binding assay. It counts as nucleic-acid assay. As to conditions: Bos taurus.
Series [35] concerns Staphylococcus aureus. In words: Antibacterial activity against Staphylococcus aureus assessed as inhibition of bacterial growth at 1 to 4 times MIC incubated for 4 hrs. Format: functional, organism-based.
Series [36] deals with Staphylococcus aureus. In words: Antibacterial activity against Staphylococcus aureus assessed as inhibition of bacterial growth at 0.5 times MIC incubated for 4 hrs. It counts as functional, organism-based.
In series [37] the test system is Escherichia coli. In words: Synergistic antibacterial activity against Escherichia coli ATCC 25922 assessed as fractional inhibitory concentration index in presence of norfloxacin. Format: functional.

What is called MIC is the lowest concentration that inhibits growth of the organism.

Take `CCn1cc(C(=O)O)c(=O)c2cc(F)c(N3CCNCC3)cc21` [NORFLOXACIN]: the MIC was 4 µg/mL (≈ 12.5 µM) in the series on Staphylococcus aureus [1]; 8 µg/mL (≈ 25.1 µM) in the series on Enterococcus faecalis; 16 µg/mL (≈ 50.1 µM) with Staphylococcus aureus [2]; 8 µg/mL (≈ 25.1 µM) in the series with Staphylococcus aureus [3]; 16 µg/mL (≈ 50.1 µM) in the series with Staphylococcus aureus [4]; 1 µg/mL (≈ 3.13 µM) with Klebsiella pneumoniae. Moreover, the minimal inhibitory concentration (MIC) is 8 µg/mL (≈ 25.1 µM) with Escherichia coli [5]; 4 µg/mL (≈ 12.5 µM) in the series on Pseudomonas aeruginosa [6]; 8 µg/mL (≈ 25.1 µM) in the series with Acinetobacter baumannii; 4 µg/mL (≈ 12.5 µM) with Pseudomonas aeruginosa [7]; 16 µg/mL (≈ 50.1 µM) in the series with Escherichia coli [8]; 4 µg/mL in the series with Staphylococcus aureus [9]. Besides, the minimum inhibitory concentration (MIC) in the series on Escherichia coli [10] was 8 µg/mL. The fold change (FC) in the series with Staphylococcus aureus [11] turned out to be 32.
For the compound `CCOP(=O)(OCC)C(Nc1ccc2c(C)cc(=O)oc2c1)c1cccc(O)c1` (centres undefined), the MIC in the series on Staphylococcus aureus [1] was 32 µg/mL (≈ 76.7 µM); in the series with Enterococcus faecalis, 16 µg/mL (≈ 38.3 µM); with Staphylococcus aureus [2], 0.5 µg/mL (≈ 1.2 µM); in the series on Staphylococcus aureus [3], 8 µg/mL (≈ 19.2 µM); in the series with Staphylococcus aureus [4], 16 µg/mL (≈ 38.3 µM); with Klebsiella pneumoniae, 64 µg/mL (≈ 153 µM). The MIC in the series on Escherichia coli [5] is 64 µg/mL (≈ 153 µM); in the series with Pseudomonas aeruginosa [6] it was 16 µg/mL (≈ 38.3 µM); with Acinetobacter baumannii, 16 µg/mL (≈ 38.3 µM); in the series with Pseudomonas aeruginosa [7] it was 64 µg/mL (≈ 153 µM); with Escherichia coli [8], 4 µg/mL (≈ 9.58 µM); in the series on Staphylococcus aureus [12] it was 0.063 µg/mL. Further, the MIC with Escherichia coli [13] amounted to 1 µg/mL. The “fractional inhibitory concentration index (FICI)” value was determined as 0.25 in the series on Staphylococcus aureus [14] and 0.75 with Escherichia coli [37]. In addition, the hemolysis at 6 h, 256 ug/ml in series [15] was below 4%. Also, the Activity result in the series with Staphylococcus aureus [16] is “Dose-Dependent Effect”; in the series with Staphylococcus aureus [17], 30%; in the series with Cell membrane [19], “Dose-Dependent Effect”; in the series with Cell membrane [21] it was “Dose-Dependent Effect”; in the series on Cell membrane [22], “Dose-Dependent Effect”; in the series on Cell membrane [24], “Dose-Dependent Effect”. Besides, the Activity entry in the series on Staphylococcus aureus [25] is “Dose-Dependent Effect”; with Staphylococcus aureus [27], “Dose-Dependent Effect”; with Staphylococcus aureus [29], 16%; with Calf thymus DNA [32] it was “Dose-Dependent Effect”. For the same compound, the result in the series on Staphylococcus aureus [18] and in the series with Staphylococcus aureus [31] was inactive. Also, the outcome in the series on Cell membrane [20], in the series on Cell membrane [23], with Calf thymus DNA [33], with Calf thymus DNA [34], with Staphylococcus aureus [35] and in the series with Staphylococcus aureus [36] was Active. For the same compound, the “fold change (FC)” value worked out at 3.7 in the series with Staphylococcus aureus [26], 2.2 in the series on Staphylococcus aureus [28] and 2 with Staphylococcus aureus [30].
Regarding `CCOP(=O)(OCC)C(Nc1ccc2c(C)cc(=O)oc2c1)c1ccc(O)c([N+](=O)[O-])c1` (centres undefined), the MIC came to 256 µg/mL (≈ 554 µM) in the series on Staphylococcus aureus [1]; 64 µg/mL (≈ 138 µM) in the series with Enterococcus faecalis; 32 µg/mL (≈ 69.2 µM) in the series on Staphylococcus aureus [2]; 64 µg/mL (≈ 138 µM) in the series on Staphylococcus aureus [3]; 32 µg/mL (≈ 69.2 µM) with Staphylococcus aureus [4]; 128 µg/mL (≈ 277 µM) with Klebsiella pneumoniae. Moreover, the MIC worked out at 64 µg/mL (≈ 138 µM) with Escherichia coli [5]; 32 µg/mL (≈ 69.2 µM) in the series on Pseudomonas aeruginosa [6]; 64 µg/mL (≈ 138 µM) in the series with Acinetobacter baumannii; 128 µg/mL (≈ 277 µM) in the series with Pseudomonas aeruginosa [7]; 128 µg/mL (≈ 277 µM) in the series with Escherichia coli [8].
For `CCOP(=O)(OCC)C(Nc1ccc2c(C(F)(F)F)cc(=O)oc2c1)c1cccc(O)c1` (centres undefined), the minimal inhibitory concentration (MIC) came to 32 µg/mL (≈ 67.9 µM) in the series on Staphylococcus aureus [1]; 16 µg/mL (≈ 33.9 µM) with Enterococcus faecalis; 16 µg/mL (≈ 33.9 µM) in the series with Staphylococcus aureus [2]; 8 µg/mL (≈ 17 µM) with Staphylococcus aureus [3]; 64 µg/mL (≈ 136 µM) in the series on Staphylococcus aureus [4]; 32 µg/mL (≈ 67.9 µM) in the series on Klebsiella pneumoniae. The minimal inhibitory concentration (MIC) in the series on Escherichia coli [5] worked out at 256 µg/mL (≈ 543 µM); with Pseudomonas aeruginosa [6], 32 µg/mL (≈ 67.9 µM); with Acinetobacter baumannii, 128 µg/mL (≈ 272 µM); in the series on Pseudomonas aeruginosa [7] it was 16 µg/mL (≈ 33.9 µM); in the series on Escherichia coli [8], 16 µg/mL (≈ 33.9 µM).
On to `CCOP(=O)(OCC)C(Nc1ccc2c(C)c(C)c(=O)oc2c1)c1cccc(O)c1` (centres undefined), for which the MIC in the series with Staphylococcus aureus [1] was found to be 128 µg/mL (≈ 297 µM); with Enterococcus faecalis it was 32 µg/mL (≈ 74.2 µM); with Staphylococcus aureus [2] it was 32 µg/mL (≈ 74.2 µM); in the series with Staphylococcus aureus [3], 64 µg/mL (≈ 148 µM); in the series on Staphylococcus aureus [4], 16 µg/mL (≈ 37.1 µM); with Klebsiella pneumoniae, 64 µg/mL (≈ 148 µM). The minimum inhibitory concentration (MIC) in the series with Escherichia coli [5] came out at 32 µg/mL (≈ 74.2 µM); with Pseudomonas aeruginosa [6], 128 µg/mL (≈ 297 µM); in the series with Acinetobacter baumannii, 256 µg/mL (≈ 593 µM); in the series with Pseudomonas aeruginosa [7], 16 µg/mL (≈ 37.1 µM); in the series on Escherichia coli [8], 64 µg/mL (≈ 148 µM).
